Measured values published in patent US9133230B2, “Hydrazone derivatives having potent antitumor activity toward multi-drug resistant tumor cells” (THE UNITED STATES OF AMERICA AS REPRESENTED BY THE …, priority 2011, dated 2015).

Experiments:
[1] = tested on: human myelogenous leukemia K562; test: MTS cytotoxicity assay, K562; format: cell-based
Procedure: (§1) In order to obtain information about the growth-inhibiting action of hydrazones reported in the present invention on tumor cells, growth inhibition was assessed for the following human tumor cell lines: human myelogenous leukemia K562, human cervical adenocarcinoma HeLa, human colon adenocarcinoma Caco-2, human colon carcinoma HT-29, human colon carcinoma HCT-15, and human breast carcinoma MCF-7.
(§2) The K562, HeLa, HT-29, HCT-15, Caco-2, and MCF-7 cell lines were obtained from the American type Culture Collection (ATCC, Manassas, Va.). K562 cells were maintained in RPMI 1640 medium (Gibco/Life Technologies, Gaithersburg, Md.) containing 10% heat-inactivated fetal bovine serum (FBS) (Atlanta Biologicals, Atlanta, Ga.) and 10000 U/L penicillin and 50 mg/L streptomycin. HeLa, HT-29, HCT-15, Caco-2 and MCF-7 cells were maintained in MEM with Earl's balanced salts, 10% FBS, penicillin, and streptomycin as above. Logarithmically growing HT-29, Caco-2, and MCF-7 cells were incubated with 0.05% trypsin containing 1 mM EDTA at 37° C. for about 5 min until cells were nonadherent and formed a single cell suspension. Trypsin activity was neutralized by adding 20-fold excess of the serum-containing medium. Cells were cultured at 37° C. in an atmosphere of air and 5% CO2.
(§3) Cytotoxicity assays were conducted by tetrazolium reduction of 3-(4,5-dimethylthiazol-2-yl)-5-(3-carboxymethoxyphenyl)-2-(4-sulfophenyl)-2H-tetrazolium (MTS) with N-methylphenazonium methyl sulfate (PMS) (CellTiter Assay, Promega, Madison, Wis.). Logarithmically growing cells were plated in 0.1 mL aliquots in 96-well microtiter plates. Cells were plated at an initial density of about 5000 cells/mL and allowed to acclimatize for 24 h. Cell suspensions were treated with various dilutions of compounds in triplicate, mixed well, and allowed to incubate for 48 h at 37° C. in an atmosphere of air and 5% CO2. To the cell suspension was added 20 μL of tetrazolium reagent, the mixture was incubated for 2 h at 37° C. in an atmosphere of air and 5% CO2, and absorbance at 490 nm was read by microplate reader. Control plates with serial dilutions of cell types were counted as a control for the assay. In all cases, controls indicated a linear response versus cell number, R^2≧0.99.

[2] = tested on: human breast carcinoma MCF-7; test: MTS cytotoxicity assay, MCF-7; format: cell-based
Procedure: as §1, §2, §3

[3] = tested on: human colon adenocarcinoma Caco-2; test: MTS cytotoxicity assay, Caco-2; format: cell-based
Procedure: as §1, §2, §3

[4] = tested on: human cervical adenocarcinoma HeLa; test: MTS cytotoxicity assay, HeLa; format: cell-based; conditions: 48 h incubation
Procedure: as §1, §2, §3

[5] = tested on: human colon carcinoma HT-29; test: MTS cytotoxicity assay, HT-29; format: cell-based
Procedure: as §1, §2, §3

[6] = tested on: human colon carcinoma HCT-15; test: MTS cytotoxicity assay, HCT-15; format: cell-based
Procedure: as §1, §2, §3

[7] = tested on: HL60-VCR; conditions: MDR cell line characterisation; cited from earlier work
[8] = Homo sapiens, MCF7, 48 h incubation
[9] = Homo sapiens, Caco-2, 48 h incubation
[10] = Homo sapiens, K562, 48 h incubation
[11] = Homo sapiens, HT-29, 48 h incubation
[12] = Homo sapiens, HCT-15, 48 h incubation

| Molecule | GI50 ([1]; 48 h incubation) | GI50 [2, 8] | GI50 [3, 9] | GI50 ([4]; Homo sapiens, HeLa) | GI50 [1, 10] | GI50 [5, 11] | GI50 [6, 12] | GI50 ([2]; 48 h incubation) | GI50 ([3]; 48 h incubation) | GI50 [4] | GI50 ([5]; 48 h incubation) | GI50 ([6]; 48 h incubation) | resistance expressed by HL60-VCR [7] |
| --- | --- | --- | --- | --- | --- | --- | --- | --- | --- | --- | --- | --- | --- |
| 6-(2-(Dipyridin-2-yl)methylene)hydrazinyl)-9-methyl-9H-purine [I-23] | 0.9 µM |  |  |  |  |  |  |  |  |  |  |  |  |
| C[C@]1(O)C(O)[C@H](n2cnc3c(NN=C(c4ccccc4)c4ccccn4)ncnc32)O[C@@H]1CO (stereo partly drawn) [I-1, (2R,3S,5R)-2-(hydroxymethyl)-3-methyl-5-(6-(2-(phenyl(pyridin-2-yl)methylene)hydrazinyl)-9H-purin-9-yl)tetrahydrofuran-3,4-diol] |  | > 100 µM | 43.2 µM | 68.9 µM | 48.1 µM | 57.2 µM |  |  |  |  |  |  |  |
| CC(=NNc1ncnc2c1ncn2C1O[C@H](CO)[C@@](C)(O)[C@H]1O)c1ccccn1 (stereo partly drawn) [I-2, (2R,3S,4R)-2-(hydroxymethyl)-3-methyl-5-(6-(2-(1-(pyridin-2-yl)ethylidene)hydrazinyl)-9H-purin-9-yl)tetrahydrofuran-3,4-diol] |  | 13.5 µM | 23 µM | 21 µM | 11 µM | 17.6 µM |  |  |  |  |  |  |  |
| CC(=NNc1ncnc2c1ncn2C1O[C@H](CO)[C@@](C)(O)[C@H]1O)c1cccnc1 (stereo partly drawn) [I-3, (2R,3S,4R)-2-(hydroxymethyl)-3-methyl-5-(6-(2-(1-(pyridin-3-yl)ethylidene)hydrazinyl)-9H-purin-9-yl)tetrahydrofuran-3,4-diol] |  | 17 µM | 2.2 µM | 17 µM | 12 µM | 15 µM | 11.2 µM |  |  |  |  |  |  |
| C[C@@]1(O)[C@@H](CO)OC(n2cnc3c(NN=Cc4ccccn4)ncnc32)[C@@H]1O (stereo partly drawn) [I-4] | 6.8 µM |  |  |  |  |  |  | 22 µM | 7.6 µM | 7.6 µM | 27 µM | 3.9 µM |  |
| OC[C@H]1O[C@@H](n2cnc3c(NN=C(c4ccccc4)c4ccccn4)ncnc32)C(O)C1O (stereo partly drawn) [I-5, (2R,5R)-2-(hydroxymethyl)-5-(6-(2-(phenyl(pyridin-2-yl)methylene)hydrazinyl)-9H-purin-9-yl)tetrahydrofuran-3,4-diol] |  | 44.9 µM | 64.5 µM | 36 µM | 49 µM | 52.5 µM |  |  |  |  |  |  |  |
| CC(=NNc1ncnc2c1ncn2[C@@H]1O[C@H](CO)C(O)C1O)c1ccccn1 (stereo partly drawn) [I-6, (2R,5R)-2-(hydroxymethyl)-5-(6-(2-(1-(pyridin-2-yl)ethylidene)hydrazinyl)-9H-purin-9-yl)tetrahydrofuran-3,4-diol] |  | 15 µM | 14 µM | 12 µM | 11 µM | 38 µM |  |  |  |  |  |  |  |
| CC(=NNc1ncnc2c1ncn2[C@@H]1O[C@H](CO)C(O)C1O)c1cccnc1 (stereo partly drawn) [I-7, (2R,5R)-2-(hydroxymethyl)-5-(6-(2-(1-(pyridin-3-yl)ethylidene)hydrazinyl)-9H-purin-9-yl)tetrahydrofuran-3,4-diol] |  | 93 µM | 63.3 µM | 25 µM | 45 µM | 144 µM |  |  |  |  |  |  |  |
| CC(=NNc1ncnc2c1ncn2[C@@H]1O[C@H](CO)C(O)C1O)c1ccncc1 (stereo partly drawn) [I-8, (2R,5R)-2-(hydroxymethyl)-5-(6-(2-(1-(pyridin-4-yl)ethylidene)hydrazinyl)-9H-purin-9-yl)tetrahydrofuran-3,4-diol] |  | 68 µM | 49.6 µM | 60 µM | 56 µM | 213 µM |  |  |  |  |  |  |  |
| OC[C@H]1OC(n2cnc3c(NN=Cc4cccnc4)ncnc32)[C@H](O)[C@@H]1O (stereo partly drawn) [I-10] | 22 µM |  |  |  |  |  |  | 14 µM | 0.9 µM | 18 µM | 18 µM | 22 µM |  |
| OC[C@H]1OC(n2cnc3c(NN=Cc4ccncc4)ncnc32)[C@H](O)[C@@H]1O (stereo partly drawn) [I-11] | 58 µM |  |  |  |  |  |  | 70 µM | 11 µM | 56 µM | 79 µM | 71 µM |  |
| OC[C@H]1OC(n2cnc3c(NN=C(c4ccccn4)c4ccccn4)ncnc32)[C@H](O)[C@@H]1O (stereo partly drawn) [I-13] | 0.3 µM |  |  |  |  |  |  | 0.9 µM | 0.2 µM | 0.3 µM | 0.8 µM | < 1 µM |  |
| N#Cc1ccccc1C=NNc1ncnc2c1ncn2C1O[C@H](CO)[C@@H](O)[C@H]1O (stereo partly drawn) [I-14, 2-((2-(9-((3R,4S,5R)-3,4-dihydroxy-5-(hydroxymethyl)tetrahydrofuran-2-yl)-9H-purin-6-yl)hydrazono)methyl)benzonitrile] |  | 1.9 µM | 0.8 µM | 0.8 µM | 0.7 µM | 1.2 µM | < 1 µM |  |  |  |  |  |  |
| Cc1ccc(C=NNc2ncnc3c2ncn3C2O[C@H](CO)[C@@H](O)[C@H]2O)s1 (stereo partly drawn) [I-15, (2R,3S,4R)-2-(hydroxymethyl)-5-(6-(2-((5-methylthiophen-2-yl)methylene)hydrazinyl)-9H-purin-9-yl)tetrahydrofuran-3,4-diol] |  | 16 µM | 1.8 µM | 4.3 µM | 19 µM | 16 µM | 5 µM |  |  |  |  |  |  |
| OC[C@H]1OC(n2cnc3c(NN=Cc4ccccc4)ncnc32)[C@H](O)[C@@H]1O (stereo partly drawn) [I-16] | 15 µM |  |  |  |  |  |  | 10 µM | 7.6 µM | 3 µM | 13 µM | 5.5 µM |  |
| CC(=NNc1ncnc2c1ncn2C1O[C@H](CO)[C@@H](O)[C@H]1O)c1ccccc1 (stereo partly drawn) [I-17, (2R,3S,4R)-2-(hydroxymethyl)-5-(6-(2-(1-phenylethylidene)hydrazinyl)-9H-purin-9-yl)tetrahydrofuran-3,4-diol] |  | 3.1 µM | 3.1 µM | 1.6 µM | 5 µM | 2.6 µM | 4.6 µM |  |  |  |  |  |  |
| c1ccc(C(=NNc2ncnc3[nH]cnc23)c2ccccn2)cc1 [I-19, 6-(2-(Phenyl(pyridin-2-yl)methylene)hydrazinyl)-9H-purine] |  | 0.9 µM | 0.9 µM | 1.4 µM | 0.9 µM | 0.9 µM | < 1 µM |  |  |  |  |  |  |
| c1ccc(C(=NNc2ncnc3[nH]cnc23)c2ccccn2)nc1 [I-20, 6-(2-(Dipyridin-2-ylmethylene)hydrazinyl)-9H-purine] |  |  |  |  | 0.1 µM |  |  |  |  |  |  |  |  |
| Cc1ccc(C=NNc2ncnc3[nH]cnc23)s1 [I-21, 6-[2-((5-Methylthiophen-2-yl)methylene)hydrazinyl]-9H-purine] |  | 11 µM | 39 µM | 38 µM | 11 µM | 35 µM | 40 µM |  |  |  |  |  |  |
| C(=NNc1ncnc2[nH]cnc12)c1ccc[nH]1 [I-22] | 7.1 µM |  |  |  |  |  |  | 9.2 µM | > 100 µM | 12 µM | 6.9 µM | 5.6 µM |  |
| CC[C@]1(O)C[C@H]2CN(CCc3c([nH]c4ccccc34)[C@@](C(=O)OC)(c3cc4c(cc3OC)N(C=O)[C@H]3[C@@](O)(C(=O)OC)[C@H](OC(C)=O)[C@]5(CC)C=CCN6CC[C@]43[C@@H]65)C2)C1 [vincristine] |  |  |  |  |  |  |  |  |  |  |  |  | 1300 fold |
